Values belong to the compound of their own block, whether it stands above or below them.
Legend:
PDE4D2 = target: T1, PDE4D2 (Homo sapiens, UniProt Q08499); assay: In vitro PDE assay; type: biochemical; conditions: Table 9A
T1 construct: purchased BPS Biosciences (San Diego, Calif.)
Description: (§1) In vitro PDE profiling and dose-response assays were performed by BPS Biosciences (San Diego, Calif.). Kinetic Mechanism of inhibition studies were conducted by Millipore (St. Louis, Mo.). In brief, the PDE assay measures fluorescent polarization of FAM-AMP as FAM-cAMP is converted to FAM-AMP by PDE), the binding agent.
(§2) A series of dilutions of the test compound were prepared with 10% DMSO in assay buffer and 5 μl of the dilution was added to a 50 μl reaction so that the final concentration of DMSO is 1% in all of reactions. All of the PDE enzymatic reactions were conducted in duplicate at room temperature for 60 minutes in a 50 μl mixture containing PDE assay buffer (10 mM Tris-HCl, pH7.4, 10 mM MaCl2, 0.05% Tween 20), 100 nM FAM-cAMP, a PDE enzyme and a test compound.
(§3) After the enzymatic reaction, 100 μl of a binding solution (1:100 dilution of the binding agent, which contains the nano beads that recognize FAM-AMP, with the binding agent diluent) was added to each reaction and the reaction was performed at room temperature for 60 minutes. Fluorescence intensity was measured at an excitation of 485 nm and an emission of 528 nm using a Tecan Infinite M1000 microplate reader. Assays done by Millipore were conducted similarly with changes noted below: […]

PDE4D3 = target: T2, PDE4D3 (Homo sapiens, UniProt Q08499); assay: In vitro PDE assay; type: biochemical
T2 construct: purchased BPS Biosciences (San Diego, Calif.); kinetic studies by Millipore (St. Louis, Mo.)
Description: as §1, §2, §3

[1] = system: Hedgehog signaling (Gli-Luc reporter); assay: Hh Gli-Luciferase reporter assay in Shh-Light2 cells; type: cell-based, mouse; conditions: Mus musculus, Shh Light2; Table 9B; read-out: Shh Light2 Luc EC50
Description: For Hh signaling assays, Shh-Light2 cells stably transfected with Gli-Luciferase reporter construct were used along with Shh-conditioned media, as previously described^7. Alternatively, 3 μM purmorphamine or 20 nM Smoothened agonist (SAG) (Santa Cruz Biotechnology, Santa Cruz, Calif.) was used to induce Hh signaling. Reporter cells were seeded in 96-well plates and incubated overnight with the various concentrations of eggmanone and Shh-conditioned media. To assess the effects of overexpression of Gli-2, PDE4D3 and DN-PDE4D3 on Hh signaling, mammalian expression vectors containing these constructs were transfected into Shh-Light2 cells in 96-well plates using Fugene6 (Roche), according to manufacturer's instructions. The transfected or Shh-stimulated cells were incubated overnight with the various concentrations of compound. The cells were then lysed, and cell extracts were subjected to Steady-Glo luciferase assay (Promega) according to manufacturer's instructions. The results were normalized to cell titer, as determined using Cell Titer-Glo luminescence assay (Promega).

B16F11 = assay: Cell viability assay (CellTiter-Blue, 72 hr); type: cell-based, Mouse; conditions: Mus musculus, B16-F10; Table 10; read-out: CELL KILLING EC50 (μM) Melanoma B16F10
Description: (§4) Cancer cell lines were seeded in 96 well tissue culture plate at a low density (10,000 cells per well) and treated with varying concentrations of Eggmanone. After 72 hr incubation, CellTiter-Blue Cell Viability Assay (Promega, Madison, Wis.) was then performed according to manufacturer's protocol. Absorbance was then measured in a Modulus Microplate reader (Promega, Madison, Wis.) at 590 nm and compared to cells treated with DMSO.
as §4, with “density” for “density (10,000 cells per well)”, “compounds identified in Table 7.” for “Eggmanone.”

DU145 = assay: Cell viability assay (CellTiter-Blue, 72 hr); type: cell-based, Human; conditions: DU-145; human cancer cells; read-out: CELL KILLING EC50 (μM) Prostate DU145
Description: as §4
as §4, with “density” for “density (10,000 cells per well)”, “compounds identified in Table 7.” for “Eggmanone.”

DaoY = assay: Cell viability assay (CellTiter-Blue, 72 hr); type: cell-based, Human; conditions: Daoy; human cancer cells; read-out: CELL KILLING EC50 (μM) Medulloblastoma DaoY
Description: as §4
as §4, with “density” for “density (10,000 cells per well)”, “compounds identified in Table 7.” for “Eggmanone.”

HCT116 = assay: Cell viability assay (CellTiter-Blue, 72 hr); type: cell-based, Human; conditions: HCT-116; human cancer cells; read-out: CELL KILLING EC50 (μM) Colon HTC116
Description: as §4
as §4, with “density” for “density (10,000 cells per well)”, “compounds identified in Table 7.” for “Eggmanone.”

HeLa = assay: Cell viability assay (CellTiter-Blue, 72 hr); type: cell-based, Human; conditions: human cancer cells, read-out: CELL KILLING EC50 (μM) Cervix HeLa
Description: as §4
as §4, with “density” for “density (10,000 cells per well)”, “compounds identified in Table 7.” for “Eggmanone.”

MDA-MB- 231 = assay: Cell viability assay (CellTiter-Blue, 72 hr); type: cell-based, Human; conditions: MDA-MB-231; human cancer cells; read-out: CELL KILLING EC50 (μM) Breast MDA-231
Description: as §4
as §4, with “density” for “density (10,000 cells per well)”, “compounds identified in Table 7.” for “Eggmanone.”

RKO = assay: Cell viability assay (CellTiter-Blue, 72 hr); type: cell-based, Human; conditions: RKO; human cancer cells; read-out: CELL KILLING EC50 (μM) Colon RKO
Description: as §4
as §4, with “density” for “density (10,000 cells per well)”, “compounds identified in Table 7.” for “Eggmanone.”

RWGT2 = assay: Cell viability assay (CellTiter-Blue, 72 hr); type: cell-based, Human; conditions: human cancer cells; read-out: CELL KILLING EC50 (μM) Lung Squam, NSCLC RWGT2
Description: as §4
as §4, with “density” for “density (10,000 cells per well)”, “compounds identified in Table 7.” for “Eggmanone.”

SW480 = assay: Cell viability assay (CellTiter-Blue, 72 hr); type: cell-based, Human; conditions: SW480; human cancer cells; read-out: CELL KILLING EC50 (μM) Colon SW480
Description: as §4
as §4, with “density” for “density (10,000 cells per well)”, “compounds identified in Table 7.” for “Eggmanone.”

MCF7 = assay: Cell viability assay (CellTiter-Blue, 72 hr); type: cell-based; conditions: MCF7; human cancer cells; read-out: CELL KILLING EC50 (μM) Breast MCF7
Description: as §4
as §4, with “density” for “density (10,000 cells per well)”, “compounds identified in Table 7.” for “Eggmanone.”

PC3 = assay: Cell viability assay (CellTiter-Blue, 72 hr); type: cell-based; conditions: PC-3; human cancer cells; read-out: CELL KILLING EC50 (μM) Prostate PCx3
Description: as §4

H82 = assay: Cell killing EC50 in H82 lung cancer cells (Table 10); type: cell-based; conditions: NCI-H82; human cancer cells
Description: It is anticipated that compounds disclosed herein could serve as an anti-tumor, anti-angiogenic, anti-metastatic, agent in the treatment of cancer. To this end, a series of clinically relevant cancer lines were assayed and the cell-killing EC50s for compounds according to the subject matter disclosed herein are provided in Table 10.

Gli1 mRNA = assay: Hh % Inh.: SAG-induced Gli1 expression in C3H10T½ cells (qPCR); type: cell-based; conditions: Mus musculus, C3H 10T1/2, SAG-induced (100 nM), 24 hours
Description: Compounds are dosed from 10 mM DMSO stock solutions, and mRNA is isolated after 24 hours of compound treatment. mRNA is reverse transcribed to produce cDNA which is quantified by quantitative polymerase chain reaction (qPCR) in triplicate and levels are normalized to GAPDH levels. Data is presented as percent inhibition compared to positive control (SAG).

[2] = system: Hedgehog signaling (TM3-Gli-Luc); assay: TM3-Gli-Luc luciferase reporter assay stimulated with 20 nM SAG; type: cell-based; conditions: Table 9A; read-out: TM3 G8 Luciferase EC 50
Outline: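 Luciferase read-out divided by CellTiter-Glo viability, minus DMSO/no-SAG baseline, expressed relative to 20 nM SAG alone. Cells exposed to compound with SAG for 48 h at 37 °C in 2.5% FBS DMEM/F12 on gelatin. EC50 ±SEM from at least two separate-day runs.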

T1 sequence (Q08499 303-809): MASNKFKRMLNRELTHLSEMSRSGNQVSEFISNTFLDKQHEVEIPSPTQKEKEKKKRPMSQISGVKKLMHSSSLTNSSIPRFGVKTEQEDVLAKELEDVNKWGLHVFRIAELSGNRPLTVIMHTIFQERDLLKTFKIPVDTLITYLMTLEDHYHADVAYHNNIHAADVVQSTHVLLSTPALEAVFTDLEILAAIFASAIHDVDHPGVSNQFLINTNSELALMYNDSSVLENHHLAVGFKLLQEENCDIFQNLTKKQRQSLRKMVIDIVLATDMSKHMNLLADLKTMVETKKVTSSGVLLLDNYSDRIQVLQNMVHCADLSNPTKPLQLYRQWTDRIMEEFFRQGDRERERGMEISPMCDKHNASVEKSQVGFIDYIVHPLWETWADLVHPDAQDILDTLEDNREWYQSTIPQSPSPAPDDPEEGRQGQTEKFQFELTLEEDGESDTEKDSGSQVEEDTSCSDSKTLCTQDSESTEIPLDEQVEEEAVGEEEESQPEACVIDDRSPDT
T2 sequence (Q08499 1-673 isoform Q08499-2): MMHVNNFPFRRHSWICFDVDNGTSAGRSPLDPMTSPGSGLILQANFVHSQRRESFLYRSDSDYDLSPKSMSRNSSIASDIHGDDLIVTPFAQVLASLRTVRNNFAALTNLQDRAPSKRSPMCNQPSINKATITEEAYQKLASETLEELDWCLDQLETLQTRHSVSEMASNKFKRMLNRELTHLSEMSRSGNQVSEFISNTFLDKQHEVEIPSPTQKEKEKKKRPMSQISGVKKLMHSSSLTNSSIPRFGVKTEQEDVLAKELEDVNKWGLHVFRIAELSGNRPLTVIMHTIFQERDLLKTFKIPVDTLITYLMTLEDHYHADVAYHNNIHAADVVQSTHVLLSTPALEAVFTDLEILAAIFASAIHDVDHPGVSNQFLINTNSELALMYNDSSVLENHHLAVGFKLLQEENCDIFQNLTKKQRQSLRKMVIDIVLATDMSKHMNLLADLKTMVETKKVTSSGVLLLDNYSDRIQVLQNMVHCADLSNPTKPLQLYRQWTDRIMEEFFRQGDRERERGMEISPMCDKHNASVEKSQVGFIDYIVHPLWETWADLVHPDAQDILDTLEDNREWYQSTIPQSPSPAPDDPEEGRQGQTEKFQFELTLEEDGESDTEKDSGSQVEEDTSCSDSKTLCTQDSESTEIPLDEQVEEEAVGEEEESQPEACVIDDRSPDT

SMILES: C=CCn1c(SCC(=O)c2ccccn2)nc2sc3c(c2c1=O)CCCC3 [Formula 1KL1]
IC50 (PDE4D2): 25 µM
IC50 (PDE4D3; Table 9A): 62 µM

SMILES: C=CCn1c(SCC(=O)c2ccncc2)nc2sc3c(c2c1=O)CCCC3 [Formula 1KMH]
IC50 (PDE4D2): 5 µM
IC50 (PDE4D3; Table 9A): 8.2 µM

SMILES: C=C(C)Cn1c(SCC(=O)N2CCOCC2)nc2sc3c(c2c1=O)CCCC3 [JEH-3-079]
IC50 (PDE4D2): 3.2 µM
IC50 (PDE4D3; Table 9A): 4.1 µM
inhibition at 1 µM (Gli1 mRNA; 1 pM [sic], read-out: C3H10T1/2 qPCR, Gh1 mRNA % Inh., 1 pM): 25.1%
inhibition at 10 µM (Gli1 mRNA; 10 pM [sic], read-out: C3H10T1/2 qPCR, Gh1 mRNA % Inh., 10 pM): 50.8%
EC50 [2]: 18.2 µM

SMILES: C=CCn1c(SCC(=O)N2CCOCC2)nc2sc3c(c2c1=O)CCCC3 [Formula 1L4R]
IC50 (PDE4D2): > 100 µM
IC50 (PDE4D3; Table 9A): > 100 µM
EC50 [2]: 2.82 µM

SMILES: C=CCn1c(SCC(=O)N2Cc3ccccc3C2)nc2sc3c(c2c1=O)CCCC3 [Formula 1KYW]
IC50 (PDE4D2): > 100 µM
IC50 (PDE4D3; Table 9A): > 100 µM

SMILES: C=CCn1c(SCC(=O)N2CCCC[C@H]2C)nc2sc3c(c2c1=O)CCCC3 [Formula 1KMR]
IC50 (PDE4D2): 7.6 µM
IC50 (PDE4D3; Table 9A): 11 µM

More lines, main results first:

EC50 [1]: 4.6 to 9.5 µM
SMILES: C=CCn1c(SCC(=O)c2ccc(Cl)s2)nc2sc(C)c(C)c2c1=O [HI499]
EC50 (B16F11): 46 µM
EC50 (DU145): 48.8 µM
EC50 (DaoY): 177 µM
EC50 (HCT116): 28.1 µM
EC50 (HeLa): 441 µM
EC50 (MDA-MB- 231): > 100 µM
EC50 (RKO): 35.7 µM
EC50 (RWGT2): 45.8 µM
EC50 (SW480): 0.69 µM
EC50 (MCF7): 2.67 µM
EC50 (PC3): 202 µM
EC50 (H82): > 100 µM

EC50 [1]: > 10 µM
IC50 (PDE4D3; Table 9B): 6 µM
SMILES: C=CCn1c(SCC(=O)c2ccccc2)nc2sc(CC)cc2c1=O [HI630]
EC50 (DU145): > 100 µM
EC50 (DaoY): > 100 µM
EC50 (HeLa): > 100 µM
EC50 (MDA-MB- 231): 23.1 µM
EC50 (RKO): 100 µM
EC50 (RWGT2): 44.4 µM
EC50 (SW480): 182 µM
EC50 (MCF7): > 100 µM
EC50 (PC3): > 100 µM
EC50 (H82): > 100 µM
